Activity calls are given as the source filed them.
Columns and labels:
HEK293 [1] = experiment: optical interference in Abeta FP readout, dose response, artefact control for IDE activator project, biochemical, fluorescence polarization (AID 588442); type: functional, cell-based; conditions: Homo sapiens
Insulin-degrading enzyme [2] = biological target: T1, Insulin-degrading enzyme (Homo sapiens, UniProt P14735); experiment: cellular IDE activation of Abeta substrate cleavage – fluorescence polarization, HEK cells, dose response (AID 588439); type: functional, cell-based
T1 sequence (P14735 whole entry): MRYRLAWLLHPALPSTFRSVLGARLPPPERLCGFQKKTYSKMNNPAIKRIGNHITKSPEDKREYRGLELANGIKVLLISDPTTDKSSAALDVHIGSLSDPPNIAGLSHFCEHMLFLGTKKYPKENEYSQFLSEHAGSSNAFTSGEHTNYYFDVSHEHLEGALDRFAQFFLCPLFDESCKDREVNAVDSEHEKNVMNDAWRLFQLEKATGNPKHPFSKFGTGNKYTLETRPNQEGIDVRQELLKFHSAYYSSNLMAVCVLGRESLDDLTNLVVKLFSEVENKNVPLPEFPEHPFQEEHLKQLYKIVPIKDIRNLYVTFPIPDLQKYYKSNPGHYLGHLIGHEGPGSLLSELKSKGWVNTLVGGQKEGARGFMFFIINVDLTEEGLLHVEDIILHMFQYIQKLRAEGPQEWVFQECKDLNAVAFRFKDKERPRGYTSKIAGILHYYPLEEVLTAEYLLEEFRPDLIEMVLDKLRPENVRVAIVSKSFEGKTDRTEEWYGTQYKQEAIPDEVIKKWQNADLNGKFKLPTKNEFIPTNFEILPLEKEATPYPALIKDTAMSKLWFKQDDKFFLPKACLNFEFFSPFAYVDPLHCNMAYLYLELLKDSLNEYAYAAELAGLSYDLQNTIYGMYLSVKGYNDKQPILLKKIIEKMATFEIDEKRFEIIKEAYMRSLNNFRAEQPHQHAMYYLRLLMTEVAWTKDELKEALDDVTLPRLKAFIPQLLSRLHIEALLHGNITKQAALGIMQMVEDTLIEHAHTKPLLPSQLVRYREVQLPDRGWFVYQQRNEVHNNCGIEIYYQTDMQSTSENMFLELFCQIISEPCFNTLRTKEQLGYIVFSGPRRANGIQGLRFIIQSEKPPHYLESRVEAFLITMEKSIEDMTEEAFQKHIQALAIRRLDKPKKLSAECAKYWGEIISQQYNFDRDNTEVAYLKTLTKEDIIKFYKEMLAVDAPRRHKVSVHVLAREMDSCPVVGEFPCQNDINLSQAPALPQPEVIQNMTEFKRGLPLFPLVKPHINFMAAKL

Insulin-degrading enzyme [3] = biological target: T1, Insulin-degrading enzyme; experiment: recombinant IDE activation, cell-free – biochemical, fluorescence polarization, counter-screen for IDE activator project, dose response (AID 588681)
HEK293 [4] = experiment: membrane integrity loss in HEK cells – cell-based, fluorescence, cytotoxicity control for IDE activator project, dose response (AID 588440); type: functional; conditions: Homo sapiens;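 further: cytotoxicity by LDH release measuring loss of membrane integrity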
[5] = biological target: T2, Sentrin-specific protease 6 (Homo sapiens, UniProt Q9GZR1); experiment: SAR Analysis of small molecule inhibitors of Sentrin-specific protease 6 (SENP6) using a Luminescent assay. [Related pubchem assays (depositor defined):AID2582, AID2599]; type: functional
T2 sequence (Q9GZR1 whole entry): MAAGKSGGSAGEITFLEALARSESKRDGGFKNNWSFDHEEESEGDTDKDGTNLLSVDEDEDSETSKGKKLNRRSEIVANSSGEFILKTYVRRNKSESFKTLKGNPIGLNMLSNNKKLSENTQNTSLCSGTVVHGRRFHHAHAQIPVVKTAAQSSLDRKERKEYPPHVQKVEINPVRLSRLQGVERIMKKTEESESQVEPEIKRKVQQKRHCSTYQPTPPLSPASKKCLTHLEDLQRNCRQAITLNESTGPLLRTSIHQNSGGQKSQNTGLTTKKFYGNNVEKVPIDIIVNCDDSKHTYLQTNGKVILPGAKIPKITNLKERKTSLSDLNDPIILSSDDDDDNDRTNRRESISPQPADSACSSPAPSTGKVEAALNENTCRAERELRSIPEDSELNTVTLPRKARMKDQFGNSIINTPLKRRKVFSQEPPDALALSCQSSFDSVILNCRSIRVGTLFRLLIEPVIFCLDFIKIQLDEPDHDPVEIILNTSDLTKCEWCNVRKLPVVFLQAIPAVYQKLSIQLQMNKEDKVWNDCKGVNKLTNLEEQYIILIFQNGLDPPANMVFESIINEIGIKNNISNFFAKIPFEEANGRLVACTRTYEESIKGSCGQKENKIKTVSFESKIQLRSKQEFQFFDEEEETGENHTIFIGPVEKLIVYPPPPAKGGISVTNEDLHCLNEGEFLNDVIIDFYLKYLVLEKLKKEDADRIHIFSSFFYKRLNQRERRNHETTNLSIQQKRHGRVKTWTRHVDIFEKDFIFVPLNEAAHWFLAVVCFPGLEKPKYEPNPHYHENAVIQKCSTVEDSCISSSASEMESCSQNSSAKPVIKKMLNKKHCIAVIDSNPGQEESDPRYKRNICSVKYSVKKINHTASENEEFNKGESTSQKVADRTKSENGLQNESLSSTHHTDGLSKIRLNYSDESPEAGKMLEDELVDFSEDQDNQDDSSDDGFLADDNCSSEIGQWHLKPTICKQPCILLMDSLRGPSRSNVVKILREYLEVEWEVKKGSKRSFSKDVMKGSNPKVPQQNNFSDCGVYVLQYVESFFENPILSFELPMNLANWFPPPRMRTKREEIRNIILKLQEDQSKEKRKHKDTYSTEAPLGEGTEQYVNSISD

[6] = biological target: T3, Sentrin-specific protease 7 (Homo sapiens, UniProt Q9BQF6); experiment: inhibition of human SENP7 cleavage activity – biochemical, luminescence, SAR follow-up (AID 504497); type: functional
T3 sequence (Q9BQF6 whole entry): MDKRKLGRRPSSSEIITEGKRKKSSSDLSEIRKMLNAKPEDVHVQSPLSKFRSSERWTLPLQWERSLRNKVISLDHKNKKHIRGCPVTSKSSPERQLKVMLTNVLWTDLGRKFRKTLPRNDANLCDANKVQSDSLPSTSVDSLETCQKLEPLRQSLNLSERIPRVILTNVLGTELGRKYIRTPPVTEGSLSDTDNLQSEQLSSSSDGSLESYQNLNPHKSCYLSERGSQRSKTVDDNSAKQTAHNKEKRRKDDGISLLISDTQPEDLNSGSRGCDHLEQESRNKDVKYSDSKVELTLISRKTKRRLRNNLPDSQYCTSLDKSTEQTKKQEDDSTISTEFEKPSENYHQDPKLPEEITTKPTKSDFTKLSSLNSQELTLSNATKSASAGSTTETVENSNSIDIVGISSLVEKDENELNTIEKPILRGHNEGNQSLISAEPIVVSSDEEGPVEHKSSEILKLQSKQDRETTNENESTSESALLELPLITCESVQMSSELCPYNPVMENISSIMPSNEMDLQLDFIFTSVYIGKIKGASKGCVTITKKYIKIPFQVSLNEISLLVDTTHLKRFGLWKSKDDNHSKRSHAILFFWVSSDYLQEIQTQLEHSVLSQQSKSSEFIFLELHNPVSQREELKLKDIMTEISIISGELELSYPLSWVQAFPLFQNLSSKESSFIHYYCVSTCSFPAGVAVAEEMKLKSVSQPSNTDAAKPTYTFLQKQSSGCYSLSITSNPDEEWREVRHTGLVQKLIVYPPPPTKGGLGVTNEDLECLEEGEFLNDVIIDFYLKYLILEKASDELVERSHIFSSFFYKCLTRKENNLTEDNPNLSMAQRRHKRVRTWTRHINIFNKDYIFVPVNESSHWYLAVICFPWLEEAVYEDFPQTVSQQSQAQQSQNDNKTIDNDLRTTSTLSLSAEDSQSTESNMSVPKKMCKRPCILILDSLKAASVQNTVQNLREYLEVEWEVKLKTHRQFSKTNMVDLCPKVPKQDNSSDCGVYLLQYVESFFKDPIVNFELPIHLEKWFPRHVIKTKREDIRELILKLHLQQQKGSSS

[7] = biological target: T4, Sentrin-specific protease 8 (Homo sapiens, UniProt Q96LD8); experiment: inhibition of human SENP8 cleavage activity – biochemical, luminescence, SAR follow-up (AID 504501); type: functional
T4 sequence (Q96LD8 whole entry): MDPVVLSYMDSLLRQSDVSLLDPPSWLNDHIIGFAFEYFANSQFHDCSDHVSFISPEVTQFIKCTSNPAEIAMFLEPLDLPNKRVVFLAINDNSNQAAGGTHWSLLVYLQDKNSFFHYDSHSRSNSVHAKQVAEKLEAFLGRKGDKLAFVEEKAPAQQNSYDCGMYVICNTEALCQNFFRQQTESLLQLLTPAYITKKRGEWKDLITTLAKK

Caspase-3 = biological target: T5, Caspase-3 (Homo sapiens, UniProt P42574); experiment: SAR Analysis of small molecule inhibitors of Sentrin-specific proteases (SENPs) using a Caspase-3 Selectivity assay. [Related pubchem assays (depositor defined):AID2540, AID2599, AID434973, AID489001]; type: functional
T5 sequence (P42574 whole entry): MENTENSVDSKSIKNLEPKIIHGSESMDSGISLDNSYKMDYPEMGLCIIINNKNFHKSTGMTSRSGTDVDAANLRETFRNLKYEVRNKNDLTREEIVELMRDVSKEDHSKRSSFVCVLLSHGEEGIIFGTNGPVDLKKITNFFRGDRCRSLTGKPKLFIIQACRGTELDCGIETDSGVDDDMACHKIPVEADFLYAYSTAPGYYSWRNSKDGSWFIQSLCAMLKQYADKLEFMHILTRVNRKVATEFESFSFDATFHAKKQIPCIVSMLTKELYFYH

CC(=O)N1CCC(=O)Nc2ccc([N+](=O)[O-])cc21
inactive: EC50 (HEK293 [1]) > 54.7 µM | EC50 (Insulin-degrading enzyme [2]) > 54.7 µM | EC50 (Insulin-degrading enzyme [3]) > 54.7 µM | IC50 (HEK293 [4]) > 89.3 µM

CC(C)(CC(=O)Nc1scc(-c2ccc(Br)cc2)c1C(=O)O)CC(=O)Nc1scc(-c2ccc(Br)cc2)c1C(=O)O
inactive: IC50 [5] > 99 µM | IC50 [6] > 99 µM | IC50 [7] > 99 µM | IC50 (Caspase-3) > 99 µM

Fc1ccc(/C=C/c2noc(-c3ccc(C(F)(F)F)cc3F)n2)cc1
inactive: IC50 [5] > 99 µM | IC50 [6] > 99 µM | IC50 [7] > 99 µM | IC50 (Caspase-3) > 99 µM

COc1ccccc1NS(=O)(=O)c1cccc(NC(=O)C2CC2)c1
inactive: EC50 (HEK293 [1]) > 55.9 µM | EC50 (Insulin-degrading enzyme [2]) > 54.7 µM | EC50 (Insulin-degrading enzyme [3]) > 54.7 µM | IC50 (HEK293 [4]) > 89.2 µM

O=[N+]([O-])c1cccc(Cl)c1NCCNc1ncc(C(F)(F)F)cc1Cl
inactive: EC50 (HEK293 [1]) > 54.7 µM | EC50 (Insulin-degrading enzyme [2]) > 54.7 µM | EC50 (Insulin-degrading enzyme [3]) > 54.7 µM | IC50 (HEK293 [4]) > 89.2 µM
